According to patent US7417072B2, “Blockade of Pin1 prevents cytokine production by activated immune cells” (Wisconsin Alumni Research Foundation, priority 2005, dated 2008):
Residues, ends and D or L forms follow the SMILES beside them. *: point of attachment. Cbz = O=C(OCc1ccccc1)*

Experiments:
[1] = tested on: eosinophils (Eos); test: Eosinophil survival, cell viability at day 4; assay type: cell-based, human; conditions: for Eos survival: HA-activated Eos
Experimental: In FIG. 2C, cells were untreated (−/− lanes on left) or incubated for 4 h with HA atone, HA plus varying concentrations (160 or 320 nM) of TAT-conjugated green fluorescent protein (TAT-GFP) or TAT-conjugated Pin1 domains (TAT-wwPin1) and analyzed as in FIG. 2A. In FIG. 2D, control (−/−), HA (100 μg/ml), rhGM-CSF (100 pg/ml), HA or GM-CSF plus TAT-GFP (160 nM) or HA or GM-CSF plus TAT-wwPin1 (160 nM) treated Eos were cultured for 4 days prior to cell viability assay as disclosed in Example 2 below.
To this end, peripheral blood was obtained by venipuncture from patients who had allergic rhinitis or asthma; patients were not symptomatic at the time blood was obtained. Peripheral blood eosinophils (Eos) were purified using a negative immunomagnetic procedure as described in Esnault and Malter (2001, J. Immunol. 166:4658-96). After isolation, Eos were maintained in vitro in RPMI 1640 medium (Gibco Life Technologies, Grand Island, N.Y.) with 10% fetal calf serum (Gibco Life Technologies, Grand Island, N.Y.) and 50 μg/ml gentamicin (Gibco Life Technologies, Grand Island, N.Y.) at 37° C. in 5% CO2, and were metabolically labeled and activated by treatment under these culture conditions with 100 μg/ml HA (˜5 hours total, see below).
The mechanism of Eos death was evaluated by western blotting.

[2] = tested on: peripheral blood mononuclear cells (PBMC); test: Cytokine mRNA accumulation in activated PBMC, northern blot / qPCR; assay type: cell-based, human; conditions: mitogen stimulated, 4 h, juglone 1 μM
Experimental: PBMCs were isolated from healthy donors by Percoll® gradient centrifugation of heparinized whole blood. Cells were cultured in RPMI 1640 media supplemented with 10% fetal calf serum (FCS) at 1×10^6 cells/ml prior to the addition of PMA (20 ng/ml) and PHA (5 ug/ml) (P/P) or PMA, PHA and juglone (1 uM) (P/P/J); “R” designates the control lane without addition of additional substances. After 4 h, cells were lysed and 10 ug of recovered RNA northern blotted and hybridized with probes shown along the left side of the Figure. “A” and “B” refer to results with 2 different donors.
After 4 h, RNA was isolated from the cells and used for quantitative PCR (qPCR) for the cytokine mRNAs shown. Data are presented as % inhibition in samples with juglone.
Thus peripheral blood mononuclear cells (˜70% T cells, 20% B cells, 5-10% macrophages/monocytes, obtained by phlebotomy of normal donors) were incubated with optimal concentrations of mitogens (phorbol ester (20 ng/ml), and PHA (40 ug/ml), both from Sigma) and cytokine in RNA levels were measured by northern blot or real time RT/PCR (qPCR) and cytokine secretion by ELISA. […] IL-2, IL-8, TNFα, IFNγ and GM-CSF mRNAs were evaluated first, since these cytokines all share 3′ UTR AU-rich elements with GM-CSF.

[3] = tested on: purified T cells; test: Cytokine mRNA in purified T cells activated with anti-CD3/anti-CD28, qPCR; assay type: cell-based, human; conditions: anti-CD3/anti-CD28, juglone 1 μM added along with antibody, 4 hours
Experimental: Purified T cells were prepared by negative selection of PBMC (T cells>98% pure based on flow cytometry) and activated with a combination of anti-CD3 and anti-CD28 antibodies. Juglone was added at 0.1 or 1 μM as shown along with the antibodies or at various times (as shown) at 1 μM after the antibodies.
Purified T cells were prepared by negative selection of PBMC (T cells>98% pure based on flow cytometry) and activated with a combination of anti-CD3 and anti-CD28 antibodies. Juglone was added at 0.1 or 1 μM as shown along with the antibodies. After 4 hours total incubation time, cells were lysed and mRNA used for RT-qPCR for the cytokine mRNAs shown “−” refers to control cells activated but not exposed to juglone.
As PBMC are heterogeneous, this cell population was fractionated into T cells by negative selection (as described in Sedgwick et al., 2003, Am J Respir Cell Mol Biol. 29:702-9). […] These were then activated with anti-CD3 and anti-CD28 antibodies (obtained from Santa Cruz Biotech), and the effects of Pin1 blockade on cytokine gene expression assessed by qPCR. […] Juglone (1 μM) added along with antibody reduced GM-CSF mRNA by between 80-95%.

[4] = tested on: rat splenocytes; test: IFN-γ and IL-2 secretion by activated splenocytes, ELISA; assay type: cell-based; conditions: I/P stimulated spleen cells
[5] = tested on: rat splenocytes; test: Splenocyte viability, propidium iodide flow cytometry; assay type: cell-based; conditions: 24 hours
Experimental: In FIG. 14A, mRNAs for IFN-γ, IL-2, TNF-α, CXCL-10 and TGF-β were analyzed in rat splenocytes by reverse transcription, qPCR. The ionomycin/PMA stimulated sample was normalized to 100 and others expressed as a % of that value. […] Cells were stained with propidium iodide and analyzed by flow cytometry. The results shown are representative of 3 experiments. […] The data are averages±SEM of 3 independent experiments using splenocytes of untreated healthy animals.
Therefore, Pin1 blockade suppressed proliferation as well as the elaboration of proinflammatory cytokines by activated rat splenocytes.

[6] = tested on: cytokine expression and immune cells of transplant recipients; test: Immunologic analysis of lung transplant recipients (blood, spleen, BAL, lung, mediastinal lymph nodes)
Experimental: Splenocytes (2000) from control or juglone-treated transplant recipients were activated with ionomycin (1 μM) and PMA (20 ng/ml) for 3 days prior to addition of anti-IL-2 or IFN gamma antibodies and color development and counting.
Spleens were processed 8 days after transplantation from untreated or juglone-treated rats for mRNA isolation and RT-qPCR for IL-2, IFN or TNF alpha. Juglone treated mRNA levels were set to 100% in these analyses.
Data are shown as the average±SEM (n=4 rats) of 3 experiments 7 days after transplantation.
The values in untreated controls were normalized to 100% and data shown represent % change in juglone treated samples. The data shown are an average±SEM (n=4 rats) of 4 experiments. * denotes p<0.05 from control samples. […] Values are normalized to control (100%).
Cytokine elaboration was measured by control, activated or juglone treated activated splenocytes as follows. IFNγ secretion by splenocytes was evaluated by ELISPOT (R&D Systems, Minneapolis, Minn.) as described by the manufacturer. Triplicates of serial dilutions of cells were cultured with PMA (10 ng/ml) plus iononycin (1 μM) for 48 hours. The concentration of IFN-γ and IL-2 in the BAL fluid was determined using an ELISA kit (R&D Systems).
Next, immunologic changes between control and juglone treated transplant recipients were analyzed. […] Splenocytes harvested from control versus untreated animals (8 days after transplant) were stimulated with optimal concentrations of PMA (20 ng/ml) and ionomycin (1 μM) and analyzed by Elispot for IL-2 and IFNγ expression.
Levels of IFN-γ and IL-2 were as measured, as described above, in the animals one week after transplantation.
Cytokine mRNAs from splenocytes in juglone treated animals were also examined.

[7] = tested on: GM-CSF mRNA; test: GM-CSF mRNA levels in eosinophils, RT-PCR/Southern blot; assay type: cell-based, human
Experimental: In FIG. 2A, Eos were treated as in FIG. 1A for 4 h prior to lysis with TriReagent and RT-PCR/Southern blot analysis for GM-CSF mRNA. Gel electrophoresis of GM-CSF products and control β-actin RT-PCR products are shown. In FIG. 2B, cells were treated with HA for 4 h and then juglone (1 μM) was added at the indicated times before harvest and RT-PCR analysis, where GM-CSF or β-actin mRNA expression were analyzed as above. In FIG. 2B, “C,” refers to PCR reaction mixtures without added cDNA. In FIG. 2C, cells were untreated (−/− lanes on left) or incubated for 4 h with HA atone, HA plus varying concentrations (160 or 320 nM) of TAT-conjugated green fluorescent protein (TAT-GFP) or TAT-conjugated Pin1 domains (TAT-wwPin1) and analyzed as in FIG. 2A. […] In FIG. 2E, eosinophils were treated for 4 h with HA or HA plus juglone (1 μM, 1 h prior to harvest) prior to the addition of actinomycin D (5 μg/ml) and cells harvested at the indicated times for RT-PCR/Southern blot analysis. In these experiments, PCR was performed for 30 (HA-treated cells) or 33 (HA plus juglone-treated cells) cycles, respectively.
In FIG. 3A, Eos were untreated (−/−), treated with HA or HA plus juglone (1 μM) for 4 h. […] In FIG. 3C, cells were untreated (−/−/−) treated for 4 h with HA alone, HA plus juglone (10 min before harvest) or HA plus 20 μM or 100 μM MG132 (4 h) plus juglone (10 min before harvest), Cell lysates were immunoblotted with the antibodies shown. […] In FIG. 3D, Eos were treated as described for FIG. 3C except that only 20 μM MG132 was used. Cells were lysed with TriReagent for total RNA isolation prior to RT-PCR/Southern blot analysis.
To characterize the mechanisms connecting hyaluronic acid (HA) activation to GM-CSF expression and eosinophil survival, GM-CSF mRNA decay was measured.
In order to assess this possibility, GM-CSF mRNA levels were measured by RT/PCR-Southern blot hybridization experiments.

[8] = tested on: p45 and p40 AUF1; test: Anti-phosphoserine immunoblot of eosinophil cytoplasmic extracts; assay type: cell-based, human; conditions: 50 μM added 30 min before harvest
Experimental: Cells were untreated (−/−/−), treated with HA alone (4 h), HA (4 h) plus juglone (1 μM added 10 min before harvest) or HA plus Erk inhibitor PD98059 (PD) (50 μM added 30 min before harvest). Cytoplasmic extracts were immunoblotted with anti-phosphoserine, anti-AUF1 or anti-Pin1 antibody as shown.
As the association of Pin1 and AUF1 was unaffected by HA (FIG. 2A) despite the loss of GM-CSF mRNA from the protein complex (FIGS. 4A & 4B) it was hypothesized that either AUF1 and/or Pin1 was modified by HA mediated signaling. Phorbol esters trigger the dephosphorylation of Ser^83 and Ser^87 of p40 AUF1 was concomitant with the stabilization of IL-1β and TNF-α mRNAs (Wilson et al. 2003, J. Biol. Chem. 278:33029-33038). Therefore, cytoplasmic extracts from control or HA-treated Eos were immunoblotted with anti-phosphoserine, anti-AUF1 or anti-Pin1 antibodies.

[9] = tested on: Pin1 and AUF1; test: Pin1 and AUF1 protein levels in eosinophils, immunoprecipitation/immunoblot; assay type: cell-based, human; conditions: MG132 4 h, juglone 10 min before harvest
Experimental: In FIG. 3A, Eos were untreated (−/−), treated with HA or HA plus juglone (1 μM) for 4 h. Cell lysates were immunoprecipitated with anti-Pin1 antibody followed by immunoblotting with anti-AUF1 or anti-Pin1 antibodies. Nonimmune IgG was used as a negative control while HeLa cell extracts were used as a positive control (“C”). In FIG. 3B, immunoblots of cytoplasmic protein from Eos treated for 4 h with HA or co-treated with juglone (1 μM) for the indicated times before harvest. In FIG. 3C, cells were untreated (−/−/−) treated for 4 h with HA alone, HA plus juglone (10 min before harvest) or HA plus 20 μM or 100 μM MG132 (4 h) plus juglone (10 min before harvest), Cell lysates were immunoblotted with the antibodies shown. Lane “C” is a HeLa cell lysate used as a positive control. In FIG. 3D, Eos were treated as described for FIG. 3C except that only 20 μM MG132 was used.
The effects of HA and juglone treatment on the interactions between AUF1 and Pin1 were then examined.
To address this possibility, Eos were exposed to the proteasome inhibitor MG132 (4 h) (Sigma) and juglone (10 min before harvest) and lysates immunoblotted.

C=CC[C@@H]1/C=C(\C)C[C@H](C)C[C@H](OC)[C@H]2O[C@@](O)(C(=O)C(=O)N3CCCC[C@H]3C(=O)O[C@H](/C(C)=C/[C@@H]3CC[C@@H](O)[C@H](OC)C3)[C@H](C)[C@@H](O)CC1=O)[C@H](C)C[C@@H]2OC [FK506]
Effect on HA-enhanced Eos survival ([1]; HA 100 μg/ml, TAT proteins 160 nM): no effect

O=C1C=CC(=O)c2c(O)cccc21 [juglone]
Eos survival ([1]; 0.1 μM): 5% | Eos survival ([1]; 1.0 μM): 5% | Suppression of cytokine mRNAs by qPCR [2]: 65-90% | Reduction of GM-CSF mRNA in purified T cells [3]: 80-95% | Concentration of maximal effect on cytokine secretion [4]: 1 µM | Apoptosis in I/P versus I/P/juglone treated splenocytes [5]: equivalent levels of apoptosis | Reduction in number of splenocytes expressing IL-2 and IFNγ by Elispot ([6]; 8 days after transplant, PMA 20 ng/ml and ionomycin 1 μM): 60-70% | Absolute counts and ratios of peripheral blood CD4+, CD8+ cells and γ/δ lymphocytes ([6]; after 1 week of juglone): largely unaffected | Fewer total BAL cells than untreated controls ([6]; juglone 1 mg/kg): 50% | IL-2 and IFN-gamma mRNA in lungs compared with no treatment controls ([6]; juglone 1 mg/kg): about 35%

COc1cccc(-c2cc(=O)c3ccccc3o2)c1N [PD98059]
GM-CSF mRNA levels in HA-treated Eos ([7]; HA 4 h, CsA 1.6 μM or 16 μM, TAT proteins 160 or 320 nM): failed to accumulate | Time to effect on GM-CSF mRNA after addition of the inhibitor ([7]; HA-activated Eos): 10 to 30 min | HA-increased phosphorylation of p45 and p40 AUF1 [8]: partially antagonized

CC(C)C[C@@H](C=O)NC(=O)[C@H](CC(C)C)NC(=O)[C@H](CC(C)C)NC(=O)OCc1ccccc1 [MG132] (Cbz-Leu-Leu-Leu-aldehyde)
GM-CSF mRNA in Eos treated with MG132 alone [7]: no observable effect | GM-CSF mRNA in Eos treated with HA, MG132 and juglone ([7]; 20 μM MG132 4 h, juglone 10 min before harvest): antagonized juglone-induced decreases of GM-CSF mRNA | Juglone-induced Pin1 degradation [9]: only partially prevented Pin1 degradation | Juglone-induced p45, p42 and p40 AUF1 degradation [9]: completely blocked
